Data from patent publication US7056506B2, “Methods for detecting and inhibiting angiogenesis” (The Regents of the University of California, priority 1998, dated 2006).

Assays:
[1] = system: Human umbilical vein endothelial cells (HUVEC's); assay: Cell adhesion assay, adhesion to fibronectin; assay type: cell-based
Text: (§1) HT29 integrin α5β1^+ cells, integrin α5β1^− colon carcinoma cells (Varner et al., Mol. Biol. Cell 6:725–740 (1995)), and chick embryo fibroblasts (CEF's) were maintained in DMEM high glucose supplemented with 10% fetal bovine serum (FBS) and gentamycin. Human umbilical vein endothelial cells (HUVEC's) were maintained in M199 medium containing sodium bicarbonate, HEPES, heparin, endothelial cell growth supplement, 20% FBS and gentamycin. Culture media and reagents were from Irvine Scientific (Irvine, Calif.).
(§2) The wells of 48 well culture dishes (Costar, Inc.) were coated with 1 μg/ml vitronectin, 2 μg/ml fibronectin (chick embryo fibroblasts and HUVEC's) or 10 μg/ml fibronectin (HT29-α5^+ cells) for 1 hr at 37° C., then blocked with 2% heat denatured BSA in PBS for 1 hr. Fifty thousand cells in 250 μl of adhesion buffer were added to triplicate wells containing 250 μl of a solution of 50 μg/ml of an anti-α5β1 function blocking antibody (NKI-SAM-1, JBS5 or IIA1), 50 μg/ml of an anti-α5β1 non-function blocking antibody (HA5 or VC5; Pharmingen, Inc.; San Diego Calif.), 10 μM cyclic peptides (Koivunen et al., J. Biol. Chem. 268:20205–20210 (1993); Koivunen et al., J. Cell Biol. 124:373380 (1994)), 0–10 μM SJ749 ((S)-2-{(2,4,6-trimethylphenyl)sulfonyl}amino-3{7-benzyloxycarbonyl-8-(2-pyridinylaminomethyl)-1-oxa-2,7-diazaspiro-{4,4}-non-2-en-3-yl}carbonylamino}propionic acid)), 50 μg/ml of LM609, an anti-αVβ3 function blocking antibody, 50 μg/ml P4C10, an anti-β1 function blocking antibody, 50 μg/ml of an anti-fibronectin cell binding domain monoclonal antibody or 50 μg/ml of an anti-fibronectin N-terminus monoclonal antibody in adhesion buffer (HEPES buffered Hanks balanced salt solution, HBSS, containing 1% BSA, 2 mM MgCl2, 2 mM CaCl2 and 0.2 mM MnCl2).
(§3) Cells were allowed to adhere to dishes for 20 min at 37° C. Nonadherent cells were removed by washing each well four times with 500 μl of warm adhesion buffer. Adherent cells were then fixed for 15 min with 3.7% paraformaldehyde in PBS and stained with a 2% crystal violet solution. After extensive water washing to remove excess crystal violet, plates were dried overnight. Crystal violet was extracted by incubation for 15 min in 10% acetic acid and absorbance at 562 nm determined as an indicator of number of cells bound. Each experiment was performed in triplicate, with triplicate samples per condition.

[2] = system: chick embryo fibroblasts (CEF's); assay: Cell adhesion assay, adhesion to fibronectin; assay type: cell-based
Text: as §1, §2, §3

[3] = system: α5^+ HT29 colon carcinoma cells, CEF's and HUVEC's; assay: Cell adhesion assay, attachment to vitronectin; assay type: cell-based; conditions: vitronectin coating
Text: as §1
The wells of 48 well culture dishes (Costar, Inc.) were coated with 1 μg/ml vitronectin, 2 μg/ml fibronectin (chick embryo fibroblasts and HUVEC's) or 10 μg/ml fibronectin (HT29-α5^+ cells) for 1 hr at 37° C., then blocked with 2% heat denatured BSA in PBS for 1 hr. […]
Cells were allowed to adhere to dishes for 20 min at 37° C. […] Crystal violet was extracted by incubation for 15 min in 10% acetic acid and absorbance at 562 nm determined as an indicator of number of cells bound. […]

[4] = system: bFGF-induced angiogenesis on the chick CAM; assay: In ovo chick CAM angiogenesis assay, bFGF stimulated; assay type: in vivo
Text: (§4) Ten day old embryonated chicken eggs (McIntyre Poultry; Ramona Calif.) were candled to illuminate blood vessels under the shell and an area with a minimum of small blood vessels is identified. The CAM was dropped away from the eggshell in this area by grinding a small hole in the mineralized shell and applying pressure to the underlying inner shell membrane. This procedure caused an air pocket to shift from the wide end of the egg to the identified area and forcing a circular region of the CAM approximately 2 cm in diameter to drop away from the shell. A window was cut in the egg shell and a cortisone acetate pre-treated filter disc 5 mm in diameter that had been saturated in 1 μg/ml bFGF, VEGF, TNFα, IL-8 (Genzyme, Inc.; Cambridge Mass.) or saline was placed on the CAM. The window in the shell was sealed with adhesive tape and the egg was incubated for four days.
(§5) Anti-fibronectin antibodies (25 μg in 25 μl) also were applied topically to the CAM.
(§6) Fibronectin, vitronectin and fibronectin fragments (59 pmol in a final volume of 25 μl) were applied to stimulated or unstimulated CAM's. Peptide or small molecule antagonists of α5β1 (at a final serum concentration of 0–25 μM) also were injected intravenously into the chick circulation 24 hr later. CAM's were harvested on the fourth day of stimulation. Blood vessel branch points in the 5 mm filter disk area were counted at 30× magnification in a blinded fashion as a size-independent quantitative indicator of vascular sprouting in response to growth factors. Angiogenesis is characterized by the sprouting of new vessels in response to growth factors. Thus, counting of blood vessel branch points is a useful quantitative means of obtaining an angiogenic index (Brooks et al., In “Methods in Molecular Biology” (Humana Press 1999). At least ten embryos were used per treatment group. Each experiment was performed a minimum of three times.
(§7) Data was evaluated in terms of average number of blood vessel branch points per treatment group +/−standard error of measurement . Statistical analyses were performed using Student's t-test. Representative CAMS from each treatment group were photographed at 10X magnification. In some cases, CAM tissue excised from the egg was frozen in OCT (Baxter; McGraw Park Ill.) in liquid nitrogen, cut into 5 μm sections, air dried and processed for immunohistochemical analysis as described in Example I, except without fixation.

[5] = system: α5^+ HT29 cells; assay: Cell adhesion assay, adhesion to fibronectin; assay type: cell-based, human
Text: as §1, §2
Cells were allowed to adhere to dishes for 20 min at 37° C. Nonadherent cells were removed by washing each well four times with 500 μl of warm adhesion buffer. […] Crystal violet was extracted by incubation for 15 min in 10% acetic acid and absorbance at 562 nm determined as an indicator of number of cells bound. […]

[6] = system: HT29 colon carcinoma cells lacking α5β1 expression; assay: Chick CAM tumor assay, HT29; assay type: in vivo; conditions: HT29 tumors on CAM
Experimental: The chick CAM tumor assay was performed by placing ten million tumor cells on the surface of a CAM, and culturing the cells for one week. The resulting tumors were excised and cut into 50 mg fragments. […] Forty-eight hours later, CAM's were excised from the egg and the number of blood vessels entering the tumors were counted (as vessel branch points).
Data was presented as mean blood vessel number per treatment group (+/− standard error of measurement). Each treatment group incorporated at least ten tumors per experiment. Representative tumors were photographed at 10× magnification. Tumors were excised from the egg and tumor weights were determined for each tumor Data was presented as mean tumor weight per treatment group (+/− standard error of measurement). Statistical analyses were performed using Student's t-test.
HT29 colon carcinoma cells lacking α5β1 expression were grown on the CAM's of 10-day old embryos. These tumor cells secrete several angiogenic growth factors, including VEGF, TGFα, TGFβ, TNFα, and IL-8 (Anzano et al., Cancer Res. 49:2898–2904 (1989); Varner et. al., supra, 1995; Ellis et al., J. Biol. Chem. 273:1052–1057 (1998)). Integrin α5β1 negative tumor cells were used to distinguish the potential anti-tumor effects from anti-vasculature effects of integrin α5β1 antagonists.

[7] = system: growth factor-induced angiogenesis in chick embryos; assay: Chick CAM angiogenesis assay, systemic administration, growth factor not specified; assay type: in vivo; conditions: chick embryo, read-out: amount inhibiting angiogenesis by 50% (converted)
Text: (§8) Ten day old embryonated chicken eggs (McIntyre Poultry; Ramona Calif.) were candled to illuminate blood vessels under the shell and an area with a minimum of small blood vessels is identified. The CAM was dropped away from the eggshell in this area by grinding a small hole in the mineralized shell and applying pressure to the underlying inner shell membrane. This procedure caused an air pocket to shift from the wide end of the egg to the identified area and forcing a circular region of the CAM approximately 2 cm in diameter to drop away from the shell. […]
(§9) Fibronectin, vitronectin and fibronectin fragments (59 pmol in a final volume of 25 μl) were applied to stimulated or unstimulated CAM's. […] Blood vessel branch points in the 5 mm filter disk area were counted at 30× magnification in a blinded fashion as a size-independent quantitative indicator of vascular sprouting in response to growth factors. […] Thus, counting of blood vessel branch points is a useful quantitative means of obtaining an angiogenic index (Brooks et al., In “Methods in Molecular Biology” (Humana Press 1999). At least ten embryos were used per treatment group. Each experiment was performed a minimum of three times.
(§10) Data was evaluated in terms of average number of blood vessel branch points per treatment group +/−standard error of measurement . […]

[8] = system: VEGF-induced angiogenesis on the chick CAM; assay: In ovo chick CAM angiogenesis assay, VEGF stimulated; assay type: in vivo; conditions: for effect of applied matrix protein on the angiogenic effect of VEGF: matrix protein applied to VEGF stimulated CAM's
Text: as §4, §5, §6, §7

[9] = system: HUVEC's; assay: Cell migration assay on fibronectin; assay type: cell-based, human
Experimental: The lower side of 8 μm pore transwell inserts (Costar, Inc.) were coated with 2 μg/ml of fibronectin, collagen (Collaborative Biomedical Products; Bedford Mass.) or no protein for 1 hr and were blocked with 2% BSA in PBS for 1 hr. The inserts then were placed into 24 well culture dishes containing 500 μl migration buffer in the lower chamber. Twenty-five thousand HUVEC's in 50 μl of migration buffer (HEPES buffered M199 medium containing 1% BSA, 2 mM MgCl2, 2 mM CaCl2 and 0.2 mM MnCl2) were added to the upper chamber of duplicate inserts containing 50 μl of a solution of 50 μg/ml of anti-α5β1 function blocking antibody (NKI-SAM-1, JBS5 or IIA1), 50 μg/ml of anti-α5β1 non-function blocking antibody (HA5 or VC5), or 50 μg/ml of LM609 (an anti-αVβ3 function blocking antibody) in migration buffer, or migration buffer alone.
Cells were allowed to migrate from the upper to the lower chamber for 4 hr at 37° C. Nonmigratory cells were removed from the upper surface by wiping the upper side with an absorbant tip, and cells that had migrated to the lower side of the transwell insert were fixed for 15 min with 3.7% paraformaldehyde in PBS, then stained with a 2% crystal violet solution. After extensive water washing to remove excess crystal violet, the number of cells that had migrated were counted in three representative high power (200×) fields per insert. […]

[10] = system: blood vessels of unstimulated CAM's; assay: In ovo chick CAM angiogenesis assay, unstimulated CAM's; assay type: in vivo; conditions: absence of growth factor
Text: as §8, §9, §10

[11] = matrix protein applied to bFGF stimulated CAM's

Molecule | effect on adhesion to fibronectin [1] | effect on adhesion to fibronectin [2] | effect on cell attachment to vitronectin [3] | effect on bFGF-induced angiogenesis ([4]; bFGF stimulated CAM) | effect on adhesion to fibronectin [5] | effect on tumor size [6] | IC50 [7] [nM] | effect on VEGF angiogenesis ([8]; VEGF stimulated CAM) | effect on endothelial cell migration on fibronectin [9] | inhibition of bFGF-induced angiogenesis (blood vessel branch points) ([4]; bFGF stimulated CAM) | tumors smaller than control treated tumors [6] [%] | effect on blood vessels / angiogenesis of unstimulated CAM's [10] | effect of applied matrix protein on the angiogenic effect of VEGF [8] | enhancement of growth factor stimulated angiogenesis [4, 11] | effect of applied matrix protein on bFGF stimulated angiogenesis [4, 11]
CATAERWRC ["scrambled" control peptide] | little effect | little effect | little effect | did not inhibit | little effect | continued to increase in size |  |  |  |  |  |  |  |  | 
CRRETAWAC | significantly inhibited | significantly inhibited |  |  | significantly inhibited | induced tumor regression | 60 | failed to block | interfered | 90+/−6% | 31 |  |  |  | 
fibronectin: intact human fibronectin |  |  |  |  |  |  |  |  |  |  |  | neither fibronectin nor vitronectin promoted angiogenesis | did not potentiate | at least 46+/−11% | 
vitronectin: vitronectin, extracellular matrix protein applied to CAM's (protein) DQESCKGRCTEGFNVDKKCQCDELCSYYQSCCTDYTAECKPQVTRGDVFTMPEDEYTVYDDGEEKNNATVHEQVGGPSLTSDLQAQSKGNPEQTPVLKPEEEAPAPEVGASKPEGIDSRPETLHPGRPQPPAEEELCSGKPFDAFTDLKNGSLFAFRGQYCYELDEKAVRPGYPKLIRDVWGIEGPIDAAFTRINCQGKTYLFKGSQYWRFEDGVLDPDYPRNISDGFDGIPDNVDAALALPAHSYSGRERVYFFKGKQYWEYQFQHQPSQEECEGSSLSAVFEHFAMMQRDSWEDIFELLFWGRTSAGTRQPQFISRDWHGVPGQVDAAMAGRIYISGMAPRPSLAKKQRFRHRNRKGYRSQRGHSRGRNQNSRRPSRATWLSLFSSEESNLGANNYDDYRMDWLVPATCEPIQSVFFFSGDKYYRVNLRTRRVDTVDPPYPRSIAQYWLGCPAPGHL |  |  |  |  |  |  |  |  |  |  |  | neither fibronectin nor vitronectin promoted angiogenesis | did not potentiate |  | no effect
